Assay results as given in patent publication US6737383B1, “Herbicidal oxadiazolidines” (priority 1999, dated 2004).

Experiments:
blackgrass = test: Test B pre/postemergence blackgrass; format: in vivo, Alopecurus myosuroides; conditions: for Blackgrass plant response rating: scale of 0 to 10 where 0 is no effect and 10 is complete control
Procedure, shortened: (§1)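 Test chemicals in a non-phytotoxic solvent mixture with surfactant were sprayed preemergence onto planted seeds and postemergence onto plants 2 to 18 cm tall (1- to 4-leaf stage). After twelve to sixteen days in a greenhouse, injury was visually rated against untreated controls from 0 (no effect) to 10 (complete control).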

surinam grass = test: Test B pre/postemergence surinam grass; format: in vivo, Brachiaria decumbens; conditions: for B. signalgrass plant response rating: scale of 0 to 10 where 0 is no effect and 10 is complete control
Procedure, shortened: as §1

cocklebur = test: Test B pre/postemergence cocklebur; format: in vivo, Xanthium strumarium; conditions: for Cocklebur plant response rating: scale of 0 to 10 where 0 is no effect and 10 is complete control
Procedure, shortened: as §1

corn = test: Test B pre/postemergence corn; format: in vivo, Zea mays; conditions: for Corn plant response rating: scale of 0 to 10 where 0 is no effect and 10 is complete control
Procedure, shortened: as §1

crabgrass = test: Test B pre/postemergence crabgrass; format: in vivo, Digitaria sanguinalis; conditions: for Crabgrass plant response rating: scale of 0 to 10 where 0 is no effect and 10 is complete control
Procedure, shortened: as §1

giant foxtail = test: Test B pre/postemergence giant foxtail; format: in vivo, Setaria faberii; conditions: for Giant foxtail plant response rating: scale of 0 to 10 where 0 is no effect and 10 is complete control
Procedure, shortened: as §1

morningglory = test: Test B pre/postemergence morningglory; format: in vivo, Ipomoea hederacea; conditions: for Morningglory plant response rating: scale of 0 to 10 where 0 is no effect and 10 is complete control
Procedure, shortened: as §1

pigweed = test: Test B pre/postemergence pigweed; format: in vivo, Amaranthus retroflexus; conditions: for Redroot pigweed plant response rating: scale of 0 to 10 where 0 is no effect and 10 is complete control
Procedure, shortened: as §1

rape = test: Test B pre/postemergence rape; format: in vivo, Brassica napus; conditions: for Rape plant response rating: scale of 0 to 10 where 0 is no effect and 10 is complete control
Procedure, shortened: as §1

sugar beet = test: Test B pre/postemergence sugar beet; format: in vivo, Beta vulgaris; conditions: for Sugarbeets plant response rating: scale of 0 to 10 where 0 is no effect and 10 is complete control
Procedure, shortened: as §1

velvetleaf = test: Test B pre/postemergence velvetleaf; format: in vivo, Abutilon theophrasti; conditions: for Velvetleaf plant response rating: scale of 0 to 10 where 0 is no effect and 10 is complete control
Procedure, shortened: as §1

wheat = test: Test B pre/postemergence wheat; format: in vivo, Triticum aestivum; conditions: for Wheat plant response rating: scale of 0 to 10 where 0 is no effect and 10 is complete control
Procedure, shortened: as §1

purple nutsedge = test: Test B pre/postemergence purple nutsedge; format: in vivo, Cyperus rotundus; conditions: for Nutsedge plant response rating: scale of 0 to 10 where 0 is no effect and 10 is complete control
Procedure, shortened: as §1

rice = test: Test B flood test rice; format: in vivo, Oryza sativa
Procedure, shortened: (§2)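 Flood test on plants grown to the 2-leaf stage; treated plants kept in greenhouse twelve to sixteen days, then visually rated against controls on a 0 (no effect) to 10 (complete control) scale.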

smallflower flatsedge = test: Test B flood test smallflower flatsedge; format: in vivo, Cyperus difformis
Procedure, shortened: as §2

duck salad = test: Test B flood test duck salad; format: in vivo, Heteranthera limosa
Procedure, shortened: as §2

[1] = Postemergence, Rate 125 g/ha, scale 0 to 10, 0 is no effect, 10 is complete control
[2] = Postemergence, Rate 250 g/ha, scale 0 to 10, 0 is no effect, 10 is complete control
[3] = Preemergence, Rate 62 g/ha, scale 0 to 10 (0 no effect, 10 complete control)
[4] = Rate 500 g/ha, Postemergence, scale 0 to 10, 0 no effect, 10 complete control
[5] = Rate 62 g/ha, flood test species, Pre-emergence, visual evaluation after twelve to sixteen days
[6] = Rate 125 g/ha, under heading Pre-emergence, flood test species, visual evaluation after twelve to sixteen days
[7] = Rate 250 g/ha, Pre-emergence, flood-test species, scale 0 to 10, 0 is no effect, 10 is complete control
[8] = Rate 500 g/ha, Pre-emergence, flood test species, scale 0 to 10 (0 no effect, 10 complete control)

CC1CC1n1c(=O)on(C(=O)N(c2ccc(F)cc2)C(C)C)c1=O (stereo not shown) [Compound 371]
Plant response rating, Blackgrass (blackgrass; [1]): 2
Plant response rating, Blackgrass (blackgrass; [2]): 6
Plant response rating, Blackgrass (blackgrass; [3]): 5
Blackgrass plant response rating (0 to 10 scale) (blackgrass; Preemergence, Rate 125 g/ha): 9
Blackgrass plant response rating (blackgrass; Preemergence, Rate 250 g/ha): 10
Blackgrass plant response rating (blackgrass; Preemergence, Rate 500 g/ha): 10
Blackgrass plant response rating (blackgrass; Rate 62 g/ha, Postemergence): 2
Plant response rating, Blackgrass (blackgrass; [4]): 8
Plant response rating, B. signalgrass (surinam grass; [1]): 0
Plant response rating, B. signalgrass (surinam grass; [2]): 3
Plant response rating, B. signalgrass (surinam grass; [3]): 0
B. signalgrass plant response rating (0 to 10 scale, 0 is no effect, 10 is complete control) (surinam grass; Preemergence, Rate 125 g/ha): 2
B. signalgrass plant response rating (surinam grass; Preemergence, Rate 250 g/ha): 2
B. signalgrass plant response rating (surinam grass; Preemergence, Rate 500 g/ha): 4
B. signalgrass plant response rating (surinam grass; Rate 62 g/ha, Postemergence): 0
Plant response rating, B. signalgrass (surinam grass; [4]): 6
Plant response rating, Cocklebur (cocklebur; [1]): 0
Plant response rating, Cocklebur (cocklebur; [2]): 0
Plant response rating, Cocklebur (cocklebur; [3]): 0
Cocklebur plant response rating (0 to 10 scale) (cocklebur; Preemergence, Rate 125 g/ha): 0
Cocklebur plant response rating (cocklebur; Preemergence, Rate 250 g/ha): 0
Cocklebur plant response rating (cocklebur; Preemergence, Rate 500 g/ha): 0
Cocklebur plant response rating (cocklebur; Rate 62 g/ha, Postemergence): 0
Plant response rating, Cocklebur (cocklebur; [4]): 0
Plant response rating, Corn (corn; [1]): 0
Plant response rating, Corn (corn; [2]): 0
Plant response rating, Corn (corn; [3]): 0
Corn plant response rating (0 to 10 scale) (corn; Preemergence, Rate 125 g/ha): 0
Corn plant response rating (corn; Preemergence, Rate 250 g/ha): 2
Corn plant response rating (corn; Preemergence, Rate 500 g/ha): 7
Corn plant response rating (corn; Rate 62 g/ha, Postemergence): 0
Plant response rating, Corn (corn; [4]): 1
Plant response rating, Crabgrass (crabgrass; [1]): 4
Plant response rating, Crabgrass (crabgrass; [2]): 8
Plant response rating, Crabgrass (crabgrass; [3]): 8
Crabgrass plant response rating (0 to 10 scale) (crabgrass; Preemergence, Rate 125 g/ha): 10
Crabgrass plant response rating (crabgrass; Preemergence, Rate 250 g/ha): 10
Crabgrass plant response rating (crabgrass; Preemergence, Rate 500 g/ha): 10
Crabgrass plant response rating (crabgrass; Rate 62 g/ha, Postemergence): 3
Plant response rating, Crabgrass (crabgrass; [4]): 9
Plant response rating, Giant foxtail (giant foxtail; [1]): 7
Plant response rating, Giant foxtail (giant foxtail; [2]): 8
Plant response rating, Giant foxtail (giant foxtail; [3]): 10
Giant foxtail plant response rating (0 to 10 scale) (giant foxtail; Preemergence, Rate 125 g/ha): 10
Giant foxtail plant response rating (giant foxtail; Preemergence, Rate 250 g/ha): 10
Giant foxtail plant response rating (giant foxtail; Preemergence, Rate 500 g/ha): 10
Giant foxtail plant response rating (giant foxtail; Rate 62 g/ha, Postemergence): 5
Plant response rating, Giant foxtail (giant foxtail; [4]): 9
Plant response rating, Morningglory (morningglory; [1]): 7
Plant response rating, Morningglory (morningglory; [2]): 7
Plant response rating, Morningglory (morningglory; [3]): 0
Morningglory plant response rating (0 to 10 scale) (morningglory; Preemergence, Rate 125 g/ha): 0
Morningglory plant response rating (morningglory; Preemergence, Rate 250 g/ha): 0
Morningglory plant response rating (morningglory; Preemergence, Rate 500 g/ha): 3
Morningglory plant response rating (morningglory; Rate 62 g/ha, Postemergence): 7
Plant response rating, Morningglory (morningglory; [4]): 10
Plant response rating, Redroot pigweed (pigweed; [1]): 0
Plant response rating, Redroot pigweed (pigweed; [2]): 2
Plant response rating, Redroot pigweed (pigweed; [3]): 4
Redroot pigweed plant response rating (0 to 10 scale) (pigweed; Preemergence, Rate 125 g/ha): 10
Redroot pigweed plant response rating (pigweed; Preemergence, Rate 250 g/ha): 10
Redroot pigweed plant response rating (pigweed; Preemergence, Rate 500 g/ha): 10
Redroot pigweed plant response rating (pigweed; Rate 62 g/ha, Postemergence): 0
Plant response rating, Redroot pigweed (pigweed; [4]): 5
Plant response rating, Rape (rape; [1]): 0
Plant response rating, Rape (rape; [2]): 0
Plant response rating, Rape (rape; [3]): 0
Rape plant response rating (0 to 10 scale) (rape; Preemergence, Rate 125 g/ha): 4
Rape plant response rating (rape; Preemergence, Rate 250 g/ha): 9
Rape plant response rating (rape; Preemergence, Rate 500 g/ha): 10
Rape plant response rating (rape; Rate 62 g/ha, Postemergence): 0
Plant response rating, Rape (rape; [4]): 0
Plant response rating, Sugarbeets (sugar beet; [1]): 0
Plant response rating, Sugarbeets (sugar beet; [2]): 0
Plant response rating, Sugarbeets (sugar beet; [3]): 0
Sugarbeets plant response rating (0 to 10 scale) (sugar beet; Preemergence, Rate 125 g/ha): 6
Sugarbeets plant response rating (sugar beet; Preemergence, Rate 250 g/ha): 6
Sugarbeets plant response rating (sugar beet; Preemergence, Rate 500 g/ha): 10
Sugarbeets plant response rating (sugar beet; Rate 62 g/ha, Postemergence): 0
Plant response rating, Sugarbeets (sugar beet; [4]): 0
Plant response rating, Velvetleaf (velvetleaf; [1]): 0
Plant response rating, Velvetleaf (velvetleaf; [2]): 2
Plant response rating, Velvetleaf (velvetleaf; [3]): 0
Velvetleaf plant response rating (0 to 10 scale) (velvetleaf; Preemergence, Rate 125 g/ha): 4
Velvetleaf plant response rating (velvetleaf; Preemergence, Rate 250 g/ha): 5
Velvetleaf plant response rating (velvetleaf; Preemergence, Rate 500 g/ha): 6
Velvetleaf plant response rating (velvetleaf; Rate 62 g/ha, Postemergence): 0
Plant response rating, Velvetleaf (velvetleaf; [4]): 3
Plant response rating, Wheat (wheat; [1]): 0
Plant response rating, Wheat (wheat; [2]): 0
Plant response rating, Wheat (wheat; [3]): 0
Wheat plant response rating (0 to 10 scale) (wheat; Preemergence, Rate 125 g/ha): 0
Wheat plant response rating (wheat; Preemergence, Rate 250 g/ha): 2
Wheat plant response rating (wheat; Preemergence, Rate 500 g/ha): 4
Wheat plant response rating (wheat; Rate 62 g/ha, Postemergence): 0
Plant response rating, Nutsedge (purple nutsedge; [1]): 0
Plant response rating, Nutsedge (purple nutsedge; [2]): 0
Plant response rating, Nutsedge (purple nutsedge; [3]): 0
Nutsedge plant response rating (0 to 10 scale) (purple nutsedge; Preemergence, Rate 125 g/ha): 0
Nutsedge plant response rating (purple nutsedge; Preemergence, Rate 250 g/ha): 5
Nutsedge plant response rating (purple nutsedge; Preemergence, Rate 500 g/ha): 9
Nutsedge plant response rating (purple nutsedge; Rate 62 g/ha, Postemergence): 0
Plant response rating, Nutsedge (purple nutsedge; [4]): 0
Plant response rating, Rice (0 to 10 scale, 0 is no effect, 10 is complete control) (rice; [5]): 0
Rice plant response rating (0 to 10 scale, 0 is no effect, 10 is complete control) (rice; [6]): 0
Rice plant response rating (rice; [7]): 0
Rice plant response rating (rice; [8]): 5
Plant response rating, S. Flatsedge (0 to 10 scale, 0 is no effect, 10 is complete control) (smallflower flatsedge; [5]): 0
S. Flatsedge plant response rating (0 to 10 scale, 0 is no effect, 10 is complete control) (smallflower flatsedge; [6]): 0
S. Flatsedge plant response rating (smallflower flatsedge; [7]): 0
S. Flatsedge plant response rating (smallflower flatsedge; [8]): 3
Plant response rating, Ducksalad (0 to 10 scale, 0 is no effect, 10 is complete control) (duck salad; [5]): 0
Ducksalad plant response rating (0 to 10 scale, 0 is no effect, 10 is complete control) (duck salad; [6]): 0
Ducksalad plant response rating (duck salad; [7]): 0
Ducksalad plant response rating (duck salad; [8]): 2
